Test results reported in publication PMC11281459 (Viruses, 2024).

Tests used:
SARS-CoV-2 [1] = test: microbe, parasite or virus in culture; type: cell-based; conditions: Severe acute respiratory syndrome coronavirus 2, VeroE6/TMPRSS2, 72 h, read-out: EC50 across SARS-CoV-2 Omicron subvariants (CPE by CellTiter-Glo)
SARS-CoV-2 [2] = test: microbe, parasite or virus in culture; type: cell-based; conditions: Severe acute respiratory syndrome coronavirus 2, VeroE6/TMPRSS2, 48 h, read-out: IC50 values across different SARS-CoV-2 Omicron subvariants

`CNC(=O)C(=O)[C@H](CCC(C)(F)F)NC(=O)[C@@H]1[C@H]2CCC[C@H]2CN1C(=O)[C@@H](NC(=O)OC)C(C)(C)C` [MK-7845] gave an EC50 (SARS-CoV-2 [1]) of 90 to 330 nM and an IC50 (SARS-CoV-2 [2]) of 80 to 300 nM.
